Measured values: publication PMC8315004, “Discovery of Small-Molecule Inhibitors of SARS-CoV-2 Proteins Using a Computational and Experimental Pipeline” (Frontiers in Molecular Biosciences, 2021)
Values joined by “and” are separate entries in the source; they are usually repeats but may differ in a detail not shown here. Equal entries are not always repeated. Structures can show the parent of a compound that is named as a salt. Where two headings read alike, the source gives them in different places.

Legend:
SARS-CoV-2 M^pro [1] = target: T1, SARS-CoV-2 M^pro (Severe acute respiratory syndrome coronavirus 2, UniProt P0DTD1); test: Mpro substrate cleavage by gel electrophoresis (SDS-PAGE) and densitometry; format: biochemical; conditions: normalized gel densitometry data (red values of Figure 2D); read-out: IC50 against Mpro, gel electrophoresis and densitometry
SARS-CoV-2 M^pro [2] = target: T1, SARS-CoV-2 M^pro; test: biochemical; design: inhibition: dose or concentration left out as unconfirmed; conditions: for inhibition / Normalized Percent FRET inhibition: initial screen, Table S4; for IC50: normalized FRET data, technical duplicates, end-point about 4 h, read-out: IC50 against Mpro, FRET values; for inhibition of the activity of Mpro in secondary screen: re-screen at 100 μM; for Normalized Percent FRET inhibition: 100 μM of drug
[3] = test system: SARS-CoV-2 expressing the mNeon reporter gene; test: microbe, parasite or virus in culture; format: cell-based; conditions: read-out: IC50 against SARS-CoV-2
[4] = target: ACE2-RBD binding (SARS-CoV-2 RBD / human ACE2-Fc) (Severe acute respiratory syndrome coronavirus 2, UniProt P0DTC2); test: biochemical; conditions: for RMAX of ACE2-RBD binding: RBD pre-treated with 50 μM compound, DMSO only 0.3044; for ACE2-RBD binding versus inhibitor concentration (in words): RBD pre-treated with increasing concentrations; for inhibition at 50 µM: pre-treatment with 50 μM compound, from Rmax with vs without compound
in vitro = conditions: African green monkey
VSV-SARS2 = test: microbe, parasite or virus in culture; format: cell-based; conditions: for IC50: read-out: IC50 against VSV-SARS2; for inhibition at 10 µM: read-out: inhibition of VSV-SARS2 infection (efficacy)
Mpro = conditions: cited from earlier work
[5] = read-out: Normalized Percent FRET inhibition
[6] = Severe acute respiratory syndrome coronavirus 2, Vero, 18 h
[7] = Vesicular stomatitis virus, Vero

Q: With `CN(C)[C@@H]1C(O)=C(C(N)=O)C(=O)[C@@]2(O)C(O)=C3C(=O)c4c(O)cccc4[C@@](C)(O)[C@H]3C[C@@H]12` [Tetracycline] as the molecule, how does the IC50 (SARS-CoV-2 M^pro [1]) read?
A: 38.2 µM

Q: And the inhibition (SARS-CoV-2 M^pro [2]; [5])?
A: 40.3%

Q: And the IC50 (SARS-CoV-2 M^pro [2])?
A: 20.8 µM

Q: What about the “inhibition of the activity of Mpro in secondary screen” value (SARS-CoV-2 M^pro [2]) of the same molecule?
A: completely inhibit

Q: With `COc1ccc(-c2ccc3cc(C(=O)O)ccc3c2)cc1C12CC3CC(CC(C3)C1)C2` [Adapalene] as the molecule, how does the IC50 [3, 6] read?
A: ~10 µM

Q: And the IC50 [3]?
A: 9.6 µM

Q: And the “RMAX of ACE2-RBD binding” value [4]?
A: 0.2322

Q: And the “ACE2-RBD binding versus inhibitor concentration (in words)” value [4]?
A: concentration-dependent decrease

Q: And the inhibition at 50 µM [4]?
A: 23.8%

Q: And the CC50 (in vitro)?
A: 60.7 µM

Q: What about the inhibition (SARS-CoV-2 M^pro [2]; [5]) of the same molecule?
A: 0.236%

Q: Which IC50 [3, 6] does the source give for `CS(=O)(=O)CCNCc1ccc(-c2ccc3ncnc(Nc4ccc(OCc5cccc(F)c5)c(Cl)c4)c3c2)o1` [Lapatinib] here?
A: 31.1 µM

Q: And the “RMAX of ACE2-RBD binding” value [4]?
A: 0.2344

Q: What about the “ACE2-RBD binding versus inhibitor concentration (in words)” value [4] of the same molecule?
A: concentration-dependent decrease

Q: And the inhibition at 50 µM [4]?
A: 23%

Q: What about the CC50 (in vitro) of the same molecule?
A: 69.6 µM

Q: And the IC50 (VSV-SARS2; [7])?
A: < 10 µM

Q: What about the inhibition at 10 µM (VSV-SARS2; [7]) of the same molecule?
A: ≥ 50%

Q: And the IC50 (VSV-SARS2)?
A: 7.1 µM

Q: With `CN(C)c1cc(NC(=O)CNC(C)(C)C)c(O)c2c1C[C@H]1C[C@H]3[C@H](N(C)C)C(O)=C(C(N)=O)C(=O)[C@@]3(O)C(O)=C1C2=O` [Tigecycline] as the molecule, how does the IC50 (SARS-CoV-2 M^pro [1]) read?
A: 29 µM

Q: And the inhibition (SARS-CoV-2 M^pro [2]; [5])?
A: 56.5%

Q: What about the IC50 (SARS-CoV-2 M^pro [2]) of the same molecule?
A: 21.5 µM and 20.5 µM

Q: What about the “inhibition of the activity of Mpro in secondary screen” value (SARS-CoV-2 M^pro [2]) of the same molecule?
A: completely inhibit

Q: With `O=c1c2ccccc2[se]n1-c1ccccc1` [Ebselen] as the molecule, how does the “Mpro inhibitor potency (literature, in words)” value (Mpro) read?
A: low micromolar

Q: What about the inhibition at 100 µM (SARS-CoV-2 M^pro [2]; [5]) of the same molecule?
A: 117%

Q: For `Cc1cnc(C(=O)N[C@H]2CCCCC/C=C\[C@@H]3C[C@@]3(C(=O)NS(=O)(=O)C3CC3)NC(=O)[C@@H]3C[C@@H](Oc4nc5ccccc5c5ccccc45)CN3C2=O)cn1` [Paritaprevir], which inhibition (SARS-CoV-2 M^pro [2]; [5]) is on record?
A: 0.758%

Q: With `C#C[C@]1(O)CC[C@H]2[C@@H]3CCc4cc(OC)ccc4[C@H]3CC[C@@]21C` [Mestranol] as the molecule, how does the inhibition (SARS-CoV-2 M^pro [2]; [5]) read?
A: -1.1%

Q: For `CO[C@@H]1[C@@H](OC(N)=O)[C@@H](O)[C@H](Oc2ccc3c(O)c(NC(=O)c4ccc(O)c(CC=C(C)C)c4)c(=O)oc3c2C)OC1(C)C` [Novobiocin Sodium], which inhibition (SARS-CoV-2 M^pro [2]; [5]) is on record?
A: -0.228%

Q: Which “Normalized Percent FRET inhibition” value (SARS-CoV-2 M^pro [2]) does the source give for `CO[C@H]1C[C@H](O[C@H]2CC[C@]3(C)[C@H]4CC[C@]5(C)[C@@H](C6=CC(=O)OC6)CC[C@]5(O)[C@@H]4CC[C@]3(O)C2)O[C@H](C)[C@H]1O[C@@H]1O[C@H](CO)[C@@H](O)[C@H](O)[C@H]1O` [Periplocin] here?
A: -1.536%

Q: For Ivermectin, which “Normalized Percent FRET inhibition” value (SARS-CoV-2 M^pro [2]) is on record?
A: -0.9158%

Q: Which inhibition (SARS-CoV-2 M^pro [2]; [5]) does the source give for `CC1(C)[C@@H](O)CC[C@]2(C)[C@H]3C(=O)C=C4[C@@H]5C[C@@](C)(C(=O)O)CC[C@]5(C)CC[C@@]4(C)[C@]3(C)CC[C@@H]12` [Enoxolone] here?
A: 4.01%

Q: For `CNC(=O)c1cnn(-c2nc(N)c3ncn([C@@H]4O[C@H](CO)[C@@H](O)[C@H]4O)c3n2)c1` [Regadenoson], which “Normalized Percent FRET inhibition” value (SARS-CoV-2 M^pro [2]) is on record?
A: -0.1877%

Q: For `Cc1ccc(Nc2nccc(N(C)c3ccc4c(C)n(C)nc4c3)n2)cc1S(N)(=O)=O` [Pazopanib], which inhibition (SARS-CoV-2 M^pro [2]; [5]) is on record?
A: -0.955%

Q: For `CC1(C)O[C@@H]2C[C@H]3[C@@H]4C[C@H](F)C5=CC(=O)C=C[C@]5(C)[C@@]4(F)[C@@H](O)C[C@]3(C)[C@]2(C(=O)CO)O1` [Fluocinolone acetonide], which inhibition (SARS-CoV-2 M^pro [2]; [5]) is on record?
A: 0.0249%

Q: With `Cc1ccc(NC(=O)c2ccc(CN3CCN(C)CC3)cc2)cc1Nc1nccc(-c2cccnc2)n1` [Imatinib] as the molecule, how does the inhibition at 10 µM (VSV-SARS2; [7]) read?
A: ≥ 50%

Q: For `COc1ccc2c(O[C@@H]3C[C@H]4C(=O)N[C@]5(C(=O)NS(=O)(=O)C6CC6)C[C@H]5/C=C\CCCCN(C)C(=O)[C@@H]4C3)cc(-c3nc(C(C)C)cs3)nc2c1C` [Simeprevir], which inhibition (SARS-CoV-2 M^pro [2]; [5]) is on record?
A: 72.9%

Q: With `CCOc1nc2cccc(C(=O)OCc3oc(=O)oc3C)c2n1Cc1ccc(-c2ccccc2-c2noc(=O)[nH]2)cc1` [Azilsartan Medoxomil] as the molecule, how does the inhibition (SARS-CoV-2 M^pro [2]; [5]) read?
A: -1.99%

Q: Which “Normalized Percent FRET inhibition” value (SARS-CoV-2 M^pro [2]; 100 µM) does the source give for `CCN1CCN(C(=O)N[C@@H](C(=O)N[C@@H]2C(=O)N3C(C(=O)O)=C(CSc4nnnn4C)CS[C@H]23)c2ccc(O)cc2)C(=O)C1=O` [Cefoperazone sodium] here?
A: 14.81%

Q: With `COc1cc(C(=O)NS(=O)(=O)c2ccccc2C)ccc1Cc1cn(C)c2ccc(NC(=O)OC3CCCC3)cc12` [Zafirlukast] as the molecule, how does the inhibition (SARS-CoV-2 M^pro [2]; [5]) read?
A: 3.83%

Q: With `COC(=O)N[C@H](C(=O)N[C@@H](Cc1ccccc1)[C@@H](O)CN(Cc1ccc(-c2ccccn2)cc1)NC(=O)[C@@H](NC(=O)OC)C(C)(C)C)C(C)(C)C` [Atazanavir] as the molecule, how does the inhibition (SARS-CoV-2 M^pro [2]; [5]) read?
A: -1.97%

Q: Which inhibition (SARS-CoV-2 M^pro [2]; [5]) does the source give for `Cc1nc(C)c2c(n1)N(Cc1ccc(-c3ccccc3-c3nnn[nH]3)cc1)C(=O)CC2` [Tasosartan] here?
A: -1.96%

Q: With `Cc1cncc(CN2CCC(=C3c4ccc(Cl)cc4CCc4cccnc43)CC2)c1.O=C(O)/C=C/C(=O)O` [Rupatadine Fumarate] as the molecule, how does the “Normalized Percent FRET inhibition” value (SARS-CoV-2 M^pro [2]) read?
A: -2.415%

Q: Which inhibition (SARS-CoV-2 M^pro [2]; [5]) does the source give for `COc1cc2nc(N3CCN(C(=O)C4COc5ccccc5O4)CC3)nc(N)c2cc1OC` (stereo not shown) [Doxazosin mesylate] here?
A: 0.919%
